Measured values taken from US11691980B2, “Liphagal analog and multi-targeted kinase inhibitor containing liphagal or analog thereof” (TOHOKU UNIVERSITY, priority 2017, dated 2023).

How the values were obtained:
Assay in all cases: mobility shift assay
Format in all cases: biochemical
TRK1 = details: 10 μM
CaMK2δ = target: T1, CaMK2δ (Homo sapiens, UniProt Q13557)
T1 construct: purchased Carna Biosciences

TSSK2 = target: T2, TSSK2 (Homo sapiens, UniProt Q96PF2)
T2 construct: purchased Carna Biosciences
T2 sequence (Q96PF2 whole entry): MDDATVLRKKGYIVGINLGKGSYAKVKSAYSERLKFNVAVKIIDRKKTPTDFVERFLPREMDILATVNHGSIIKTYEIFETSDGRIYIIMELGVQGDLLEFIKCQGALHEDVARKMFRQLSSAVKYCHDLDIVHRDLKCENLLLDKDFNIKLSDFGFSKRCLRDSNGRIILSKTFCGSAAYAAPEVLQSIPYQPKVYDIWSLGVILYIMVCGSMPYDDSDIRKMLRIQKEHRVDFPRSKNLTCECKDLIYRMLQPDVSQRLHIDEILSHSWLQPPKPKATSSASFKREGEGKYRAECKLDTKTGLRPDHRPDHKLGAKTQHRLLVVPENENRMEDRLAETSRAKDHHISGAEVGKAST

ROS = target: T3, ROS (Homo sapiens, UniProt P08922)
T3 construct: purchased Carna Biosciences
T3 sequence (P08922 28-2347): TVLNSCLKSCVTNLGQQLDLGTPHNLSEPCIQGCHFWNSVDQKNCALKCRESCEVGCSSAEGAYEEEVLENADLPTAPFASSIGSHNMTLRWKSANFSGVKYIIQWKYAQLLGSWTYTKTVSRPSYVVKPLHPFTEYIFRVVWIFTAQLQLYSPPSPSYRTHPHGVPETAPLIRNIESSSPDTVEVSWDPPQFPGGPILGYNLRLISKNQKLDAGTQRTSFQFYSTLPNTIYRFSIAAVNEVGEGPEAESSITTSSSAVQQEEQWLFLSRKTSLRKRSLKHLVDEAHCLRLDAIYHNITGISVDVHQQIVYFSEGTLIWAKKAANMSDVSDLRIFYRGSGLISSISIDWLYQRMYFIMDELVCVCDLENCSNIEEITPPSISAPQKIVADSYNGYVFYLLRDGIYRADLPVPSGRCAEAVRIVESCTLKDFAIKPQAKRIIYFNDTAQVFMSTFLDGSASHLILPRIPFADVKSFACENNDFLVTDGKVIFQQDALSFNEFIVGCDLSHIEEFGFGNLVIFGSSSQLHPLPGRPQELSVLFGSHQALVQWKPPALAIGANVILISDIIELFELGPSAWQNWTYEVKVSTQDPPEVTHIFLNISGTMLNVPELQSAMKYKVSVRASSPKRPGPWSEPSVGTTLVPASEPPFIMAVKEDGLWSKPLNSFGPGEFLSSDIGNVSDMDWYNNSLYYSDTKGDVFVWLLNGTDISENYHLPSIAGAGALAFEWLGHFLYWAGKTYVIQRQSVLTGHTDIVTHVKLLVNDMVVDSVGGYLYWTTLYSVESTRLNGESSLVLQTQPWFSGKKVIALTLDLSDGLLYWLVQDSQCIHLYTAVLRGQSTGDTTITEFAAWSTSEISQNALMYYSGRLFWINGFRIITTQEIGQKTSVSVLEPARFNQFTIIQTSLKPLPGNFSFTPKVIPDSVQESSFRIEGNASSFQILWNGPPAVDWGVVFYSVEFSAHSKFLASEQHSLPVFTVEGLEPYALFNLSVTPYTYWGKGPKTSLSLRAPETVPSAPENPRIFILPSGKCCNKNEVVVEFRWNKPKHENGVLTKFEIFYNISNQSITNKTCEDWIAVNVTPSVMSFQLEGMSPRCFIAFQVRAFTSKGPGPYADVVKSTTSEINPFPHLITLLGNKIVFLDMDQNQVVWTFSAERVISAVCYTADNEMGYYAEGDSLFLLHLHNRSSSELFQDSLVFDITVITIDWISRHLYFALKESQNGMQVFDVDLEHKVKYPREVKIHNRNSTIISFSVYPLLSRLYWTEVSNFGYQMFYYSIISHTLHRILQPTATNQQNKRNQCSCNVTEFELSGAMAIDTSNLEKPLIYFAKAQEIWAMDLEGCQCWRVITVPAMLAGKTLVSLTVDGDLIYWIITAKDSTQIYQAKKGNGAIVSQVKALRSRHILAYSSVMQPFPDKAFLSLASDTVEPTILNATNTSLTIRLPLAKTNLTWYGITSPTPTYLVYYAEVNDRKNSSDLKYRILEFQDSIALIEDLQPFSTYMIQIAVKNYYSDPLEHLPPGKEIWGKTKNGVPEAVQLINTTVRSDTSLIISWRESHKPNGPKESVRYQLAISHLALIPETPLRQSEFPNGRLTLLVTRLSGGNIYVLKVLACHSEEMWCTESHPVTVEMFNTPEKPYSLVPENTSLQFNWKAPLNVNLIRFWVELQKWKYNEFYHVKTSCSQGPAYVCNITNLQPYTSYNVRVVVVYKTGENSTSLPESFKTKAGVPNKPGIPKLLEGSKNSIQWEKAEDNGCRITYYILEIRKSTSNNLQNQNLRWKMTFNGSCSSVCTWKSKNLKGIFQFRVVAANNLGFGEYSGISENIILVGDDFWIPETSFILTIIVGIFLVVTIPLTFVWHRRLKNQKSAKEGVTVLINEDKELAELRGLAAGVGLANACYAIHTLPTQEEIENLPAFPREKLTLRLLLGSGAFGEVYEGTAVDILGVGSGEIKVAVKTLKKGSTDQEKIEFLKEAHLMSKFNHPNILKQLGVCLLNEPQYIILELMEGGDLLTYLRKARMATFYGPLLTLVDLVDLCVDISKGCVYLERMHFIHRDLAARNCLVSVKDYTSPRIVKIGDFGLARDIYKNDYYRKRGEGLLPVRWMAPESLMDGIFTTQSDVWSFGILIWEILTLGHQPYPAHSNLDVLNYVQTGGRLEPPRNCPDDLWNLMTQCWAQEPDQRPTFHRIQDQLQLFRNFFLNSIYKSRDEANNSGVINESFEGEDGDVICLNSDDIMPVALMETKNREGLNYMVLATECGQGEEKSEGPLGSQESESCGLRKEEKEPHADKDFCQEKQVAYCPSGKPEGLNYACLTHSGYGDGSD

BRAF(V600E)_Cascade = target: T4, BRAF(V600E)_Cascade (Homo sapiens, UniProt P15056, V600E)
T4 construct: purchased Carna Biosciences

MRCKα = target: T5, MRCKα (Homo sapiens, UniProt Q5VT25)
T5 construct: purchased Carna Biosciences

KDR = target: T6, KDR (Homo sapiens, UniProt P35968)
T6 construct: purchased Carna Biosciences

ACK = target: T7, ACK (Homo sapiens, UniProt Q07912)
T7 construct: purchased Carna Biosciences

MAPKAPK3 = target: T8, MAPKAPK3 (Homo sapiens, UniProt Q16644)
T8 construct: purchased Carna Biosciences

FGR3(K650E) = target: T9, FGR3(K650E) (Homo sapiens, UniProt P22607, K650E)
T9 construct: purchased Carna Biosciences

SIK = target: T10, SIK (Homo sapiens, UniProt P57059)
T10 construct: purchased Carna Biosciences

PDK1 = target: T11, PDK1 (Homo sapiens, UniProt O15530)
T11 construct: purchased Carna Biosciences

FYN(isoform a) = target: T12, FYN(isoform a) (Homo sapiens, UniProt P06241)
T12 construct: purchased Carna Biosciences

p70S6Kβ = target: T13, p70S6Kβ (Homo sapiens, UniProt Q9UBS0)
T13 construct: purchased Carna Biosciences

FGFR4(V550E) = target: T14, FGFR4(V550E) (Homo sapiens, UniProt P22455, V550E)
T14 construct: purchased Carna Biosciences

EGFR(T790M) = target: T15, EGFR(T790M) (Homo sapiens, UniProt P00533, T790M)
T15 construct: purchased Carna Biosciences

COK6/CycD3 = target: T16, COK6/CycD3 (Homo sapiens, UniProt Q00534)
T16 construct: purchased Carna Biosciences
T16 sequence (Q00534 whole entry): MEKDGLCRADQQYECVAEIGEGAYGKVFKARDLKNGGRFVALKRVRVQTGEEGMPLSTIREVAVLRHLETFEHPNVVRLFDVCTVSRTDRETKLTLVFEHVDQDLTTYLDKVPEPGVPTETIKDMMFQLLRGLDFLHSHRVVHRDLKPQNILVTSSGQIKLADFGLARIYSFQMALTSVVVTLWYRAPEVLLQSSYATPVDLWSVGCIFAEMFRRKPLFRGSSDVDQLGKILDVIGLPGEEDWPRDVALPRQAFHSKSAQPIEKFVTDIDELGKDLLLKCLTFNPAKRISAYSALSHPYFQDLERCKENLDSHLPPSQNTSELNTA
T16 sequence (P30281 whole entry partner): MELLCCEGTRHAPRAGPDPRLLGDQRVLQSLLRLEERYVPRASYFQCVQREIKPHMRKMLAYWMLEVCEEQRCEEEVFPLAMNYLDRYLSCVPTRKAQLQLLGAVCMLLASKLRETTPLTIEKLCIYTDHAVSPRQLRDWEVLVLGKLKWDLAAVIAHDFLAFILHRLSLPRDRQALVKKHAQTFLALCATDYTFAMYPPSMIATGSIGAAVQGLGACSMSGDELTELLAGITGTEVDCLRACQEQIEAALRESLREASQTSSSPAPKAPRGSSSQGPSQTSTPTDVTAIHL

NEK6 = target: T17, NEK6 (Homo sapiens, UniProt Q9HC98)
T17 construct: purchased Carna Biosciences
T17 sequence (Q9HC98 whole entry): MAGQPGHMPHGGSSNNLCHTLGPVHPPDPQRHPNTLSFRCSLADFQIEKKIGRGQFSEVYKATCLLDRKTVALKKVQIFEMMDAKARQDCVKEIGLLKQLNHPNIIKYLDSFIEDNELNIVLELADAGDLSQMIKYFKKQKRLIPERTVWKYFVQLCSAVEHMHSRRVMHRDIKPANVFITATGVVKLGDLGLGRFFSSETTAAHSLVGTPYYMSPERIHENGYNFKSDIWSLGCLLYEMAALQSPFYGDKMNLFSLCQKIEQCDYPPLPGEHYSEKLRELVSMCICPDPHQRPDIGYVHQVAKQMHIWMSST

ALK(L1152lnsT) = details: 10 μM
EGFR(d746-750/T790M) = target: T18, EGFR(d746-750/T790M) (Homo sapiens, UniProt P00533, DEL746-750/T790M)
T18 construct: purchased Carna Biosciences

PKCη = target: T19, PKCη (Homo sapiens, UniProt P24723)
T19 construct: purchased Carna Biosciences

SGK2 = target: T20, SGK2 (Homo sapiens, UniProt Q9HBY8)
T20 construct: purchased Carna Biosciences

RET(M918T) = target: T21, RET(M918T) (Homo sapiens, UniProt P07949, M918T)
T21 construct: purchased Carna Biosciences

KIT(D816V) = target: T22, KIT(D816V) (Homo sapiens, UniProt P10721, D816V)
T22 construct: purchased Carna Biosciences

IKKβ = target: T23, IKKβ (Homo sapiens, UniProt O14920)
T23 construct: purchased Carna Biosciences

MLK1_Cascade = target: T24, MLK1_Cascade (Homo sapiens, UniProt P80192)
T24 construct: purchased Carna Biosciences

RET(Y791F) = target: T25, RET(Y791F) (Homo sapiens, UniProt P07949, Y791F)
T25 construct: purchased Carna Biosciences

MAPKAPK2 = target: T26, MAPKAPK2 (Homo sapiens, UniProt P49137)
T26 construct: purchased Carna Biosciences

SGK = target: T27, SGK (Homo sapiens, UniProt O00141)
T27 construct: purchased Carna Biosciences

ALK(L1196M) = target: T28, ALK(L1196M) (Homo sapiens, UniProt Q9UM73, L1196M)
T28 construct: purchased Carna Biosciences

PLK3 = target: T29, PLK3 (Homo sapiens, UniProt Q9H4B4)
T29 construct: purchased Carna Biosciences

PDGFRβ = target: T30, PDGFRβ (Homo sapiens, UniProt P09619)
T30 construct: purchased Carna Biosciences

EPHA8 = target: T31, EPHA8 (Homo sapiens, UniProt P29322)
T31 construct: purchased Carna Biosciences

TXK = target: T32, TXK (Homo sapiens, UniProt P42681)
T32 construct: purchased Carna Biosciences

PIM2 = PIM2 (Homo sapiens, UniProt Q9P1W9)
Sequence of PIM2 (Q9P1W9 whole entry): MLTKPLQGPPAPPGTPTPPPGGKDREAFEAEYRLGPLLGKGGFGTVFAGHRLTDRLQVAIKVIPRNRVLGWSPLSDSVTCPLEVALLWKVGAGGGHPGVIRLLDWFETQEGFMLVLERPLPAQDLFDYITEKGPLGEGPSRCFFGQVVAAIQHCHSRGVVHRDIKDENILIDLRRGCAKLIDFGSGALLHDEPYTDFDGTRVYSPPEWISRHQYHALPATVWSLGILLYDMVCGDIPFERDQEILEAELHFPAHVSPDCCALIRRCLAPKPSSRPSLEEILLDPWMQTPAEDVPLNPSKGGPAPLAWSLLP

PKD2 = target: T33, PKD2 (Homo sapiens, UniProt Q9BZL6)
T33 construct: purchased Carna Biosciences

p70S6K = target: T34, p70S6K (Homo sapiens, UniProt P23443)
T34 construct: purchased Carna Biosciences

PDHK2 = target: T35, PDHK2 (Homo sapiens, UniProt Q15119)
T35 construct: purchased Carna Biosciences

CDK7/CycHMAT1 = CDK7/CycHMAT1 (Homo sapiens, UniProt P50613); parameters: purchased Carna Biosciences
Sequence of CDK7/CycHMAT1 (P50613 whole entry): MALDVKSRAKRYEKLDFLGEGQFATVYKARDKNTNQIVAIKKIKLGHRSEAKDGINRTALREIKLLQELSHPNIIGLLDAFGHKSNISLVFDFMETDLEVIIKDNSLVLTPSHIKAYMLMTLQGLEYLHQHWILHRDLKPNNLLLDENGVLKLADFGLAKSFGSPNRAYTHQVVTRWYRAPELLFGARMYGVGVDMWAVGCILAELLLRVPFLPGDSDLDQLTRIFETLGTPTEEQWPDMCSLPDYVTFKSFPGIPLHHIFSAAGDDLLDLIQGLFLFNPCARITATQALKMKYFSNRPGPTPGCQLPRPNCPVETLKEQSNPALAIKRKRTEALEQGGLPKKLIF
Sequence of CDK7/CycHMAT1 (P51946 whole entry partner): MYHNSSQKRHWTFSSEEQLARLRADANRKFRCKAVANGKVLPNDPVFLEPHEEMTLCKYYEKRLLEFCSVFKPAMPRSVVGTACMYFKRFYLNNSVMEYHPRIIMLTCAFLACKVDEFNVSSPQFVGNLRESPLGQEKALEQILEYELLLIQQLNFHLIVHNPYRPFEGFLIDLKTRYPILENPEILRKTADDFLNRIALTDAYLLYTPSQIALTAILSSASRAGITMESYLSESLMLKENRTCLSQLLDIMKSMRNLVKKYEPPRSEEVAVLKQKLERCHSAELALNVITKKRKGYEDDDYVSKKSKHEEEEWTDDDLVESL
Sequence of CDK7/CycHMAT1 (P51948 whole entry partner): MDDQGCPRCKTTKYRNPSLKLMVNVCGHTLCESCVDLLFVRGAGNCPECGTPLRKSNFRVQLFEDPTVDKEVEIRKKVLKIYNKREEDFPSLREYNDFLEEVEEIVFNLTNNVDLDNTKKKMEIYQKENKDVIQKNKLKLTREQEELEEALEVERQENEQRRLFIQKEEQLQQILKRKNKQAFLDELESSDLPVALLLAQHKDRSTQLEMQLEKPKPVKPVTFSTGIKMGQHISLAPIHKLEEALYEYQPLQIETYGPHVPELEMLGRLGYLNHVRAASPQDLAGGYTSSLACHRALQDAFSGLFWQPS

CaMK2γ = target: T36, CaMK2γ (Homo sapiens, UniProt Q13555)
T36 construct: purchased Carna Biosciences

**Q.** For `C[C@@H]1CC[C@H]2C(C)(C)CCC[C@]2(C)c2c1oc1c(C=O)c(O)c(O)cc21` [LG-1, liphagal], which “% Inhibition” value (TRK1) is on record?
**A.** −0.5%

**Q.** And the inhibition at 10 µM (CaMK2δ)?
**A.** 7.7%

**Q.** What about the inhibition at 10 µM (TSSK2) of the same compound?
**A.** 21%

**Q.** And the inhibition at 10 µM (ROS)?
**A.** 8.6%

**Q.** What about the inhibition at 10 µM (BRAF(V600E)_Cascade) of the same compound?
**A.** 19.5%

**Q.** And the inhibition at 10 µM (MRCKα)?
**A.** 16%

**Q.** And the inhibition at 10 µM (KDR)?
**A.** -1.1%

**Q.** What about the inhibition at 10 µM (ACK) of the same compound?
**A.** 8.4%

**Q.** And the inhibition at 10 µM (MAPKAPK3)?
**A.** 4.8%

**Q.** What about the inhibition at 10 µM (FGR3(K650E)) of the same compound?
**A.** -8.4%

**Q.** What about the inhibition at 10 µM (SIK) of the same compound?
**A.** 33.7%

**Q.** What about the inhibition at 10 µM (PDK1) of the same compound?
**A.** -97.8%

**Q.** And the inhibition at 10 µM (FYN(isoform a))?
**A.** 0.5%

**Q.** What about the inhibition at 10 µM (p70S6Kβ) of the same compound?
**A.** 26.4%

**Q.** What about the inhibition at 10 µM (FGFR4(V550E)) of the same compound?
**A.** 2.4%

**Q.** What about the inhibition at 10 µM (EGFR(T790M)) of the same compound?
**A.** -2%

**Q.** What about the inhibition at 10 µM (COK6/CycD3; COK6/CycD3) of the same compound?
**A.** 72.7%

**Q.** And the “inhibitory activity against CDK6” value (COK6/CycD3; in words, 10 μM)?
**A.** Potent inhibitory activity

**Q.** And the inhibition at 10 µM (NEK6)?
**A.** 65.4%

**Q.** And the “% Inhibition” value (ALK(L1152lnsT))?
**A.** −0.2%

**Q.** What about the inhibition at 10 µM (EGFR(d746-750/T790M)) of the same compound?
**A.** 2.5%

**Q.** And the inhibition at 10 µM (PKCη)?
**A.** -34.3%

**Q.** And the inhibition at 10 µM (SGK2)?
**A.** 9.3%

**Q.** What about the inhibition at 10 µM (RET(M918T)) of the same compound?
**A.** 5.9%

**Q.** And the inhibition at 10 µM (KIT(D816V))?
**A.** 13%

**Q.** What about the inhibition at 10 µM (IKKβ) of the same compound?
**A.** 2.4%

**Q.** What about the inhibition at 10 µM (MLK1_Cascade) of the same compound?
**A.** 16.3%

**Q.** And the inhibition at 10 µM (RET(Y791F))?
**A.** 9.9%

**Q.** And the inhibition at 10 µM (MAPKAPK2)?
**A.** 0.5%

**Q.** And the inhibition at 10 µM (SGK)?
**A.** 12.4%

**Q.** What about the inhibition at 10 µM (ALK(L1196M)) of the same compound?
**A.** -1.5%

**Q.** And the inhibition at 10 µM (PLK3)?
**A.** 31.1%

**Q.** What about the inhibition at 10 µM (PDGFRβ) of the same compound?
**A.** -3.4%

**Q.** And the inhibition at 10 µM (EPHA8)?
**A.** 0.8%

**Q.** What about the inhibition at 10 µM (TXK) of the same compound?
**A.** 23.1%

**Q.** And the inhibition at 10 µM (PIM2; PIM2)?
**A.** 63.5%

**Q.** What about the “inhibitory activity against PIM2” value (PIM2; in words, 10 μM) of the same compound?
**A.** potent inhibitory activity

**Q.** What about the inhibition at 10 µM (PKD2) of the same compound?
**A.** 2.8%

**Q.** What about the inhibition at 10 µM (p70S6K) of the same compound?
**A.** 15.9%

**Q.** And the inhibition at 10 µM (PDHK2)?
**A.** 47.2%

**Q.** What about the inhibition at 10 µM (CDK7/CycHMAT1; CDK7/CycHMAT1) of the same compound?
**A.** 85.8%

**Q.** And the “inhibitory activity against CDK7” value (CDK7/CycHMAT1; in words, 10 μM)?
**A.** Potent inhibitory activity

**Q.** And the inhibition at 10 µM (CaMK2γ)?
**A.** 3.8%
